This passage reports melting point results from a melting point compilation (Tetko et al.; mined from patent text by program, amines drawn as free bases though some values may be those of a salt).

For orientation: melting point means the temperature of the solid-liquid transition.

Turning to `O=C1c2ccc(N=C(c3ccccc3)N3CCCCC3)cc2C(=O)c2ccc(N=C(c3ccccc3)N3CCCCC3)cc21`, the melting point was 264 to 266 °C.
For `CN(C)C=C1CCc2cnccc2C1=O`, the melting point lay in the range of 76 to 79 °C.
`CC(C)(C)c1ccc2c(c1)C(CO)c1cc(C(C)(C)C)ccc1-2` registered a melting point of 102 to 103 °C.
Consider `NC(=O)N1c2ccccc2C=C([N+](=O)[O-])c2ccccc21`, for which the melting point is 208 to 212 °C.
As for `COC1=CC(=O)N/C1=C\C(C)C`, the melting point lay in the range of 140 to 141 °C.
Under `Cc1csc2c(C(=O)O)c(=O)c3cc4c(cc3n12)OCO4` stands 303 to 305 °C; under `CCCCCCc1c(C(F)(F)F)noc1NS(=O)(=O)c1ccccc1`, 128 to 129 °C; under `CC(C)Oc1c(C(N)=O)oc2ccccc12`, 82 to 83 °C.
Under `CS(=O)(=O)c1ccc(C(CC2CCCC2)C(=O)Nc2cnc(C(C#N)=NO)cn2)cc1Cl` (centres undefined) stands 130 to 133 °C; under `CC(NC(=O)Cc1cc(F)cc(F)c1)C(=O)NC1C(=O)NC(c2cccnc2)c2ccccc21` (centres undefined), 100 to 120 °C; under `CCC(Nc1ccncc1)c1ccccc1` (centres undefined), 190 to 192 °C.
Turning to `O=C(C=Cc1ccc(S(=O)(=O)Nc2ccccc2)cc1)NO`, the melting point fell in the range of 176 to 178 °C.
Under `O=C(NCC(F)(F)F)c1cc(Cl)cc(Cl)c1` stands 145 to 147 °C; under `COC(=O)c1c(Cl)nc2cc3c(cc2c1CN1CCN(C)CC1)OCCO3`, 143 °C.
As to `COC(=O)N1CCC(=NO)c2cc(Cl)ccc21`, the melting point was 162 to 163 °C.
Compound `CCNCC(=O)Nc1cccc2c1C(=O)c1c-2n[nH]c1-c1ccc(OC)cc1` returned a melting point of 250 °C.
Under `CC(=O)N(O)CC1=C(n2ccccc2=O)c2cc(C(F)(F)F)ccc2OC1(C)C` stands 188 °C; under `O=C(O)C1c2ccccc2COc2cc(Br)ccc21` (centres undefined), 217 to 218 °C.
Under `O=C(O[C@H]1Cc2c(O)cc(O)cc2O[C@@H]1c1ccc(O)cc1)c1cc(O)c(O)c(O)c1` stands 96 to 98 °C; under `O=[N+]([O-])c1cn(CC(I)=C(I)I)c(Cl)c1Cl`, 126 to 127 °C; under `O=C(CCC(=O)N1CCCCC1)c1ccccc1`, 52 to 54 °C.
Consider `COc1ccc(F)c(C(N)=O)c1F`, for which the melting point was 167 to 169 °C.
`CC(c1ccc(O)cc1)(c1ccc(O)cc1)c1ccc2ccccc2c1` came in with a melting point of 185 to 186 °C.
`COC(=O)NCCOc1cc(Oc2ccc(C(F)(F)F)cc2Cl)ccc1[N+](=O)[O-]` registered a melting point of 91 to 92 °C.
For `O=C(C(Cl)=Cn1ccnc1)c1ccc(Cl)cc1Cl`, the melting point lay in the range of 149 to 151 °C.
Compound `NC(=O)C1C2C=CC(C2)C1Nc1c(Cl)cnc2[nH]c(-c3ccc4c(c3)CCC3(CCNCC3)O4)nc12` (centres undefined) returned a melting point greater than 250 °C.
In turn, `CS(=O)(=O)NC(=O)c1cccc([N+](=O)[O-])c1` gave a melting point of 175 to 178 °C.
Under `CC1CC2C3=C(C(O)CC2(C)C1C(=O)CO)C1(C)C=CC(=O)C=C1C(F)C3` (centres undefined) stands 173 °C.
Under `CC1(C)CCC(C)(C)c2cc(C(=O)Nc3ccc(OCCN4CCOCC4)cc3)ccc21` stands 134 to 136 °C.
For `CSc1cc2c(cn1)c(=O)n1nc(C)cc1n2C`, the melting point is greater than 300 °C.
Under `N=C(N)c1ccc2cc(OC(=O)C3CCC3)ccc2c1` stands 225 to 230 °C; under `COC(=O)c1c(C=O)n(C)c2ccc(OC)cc12`, 133 to 134 °C; under `O=C(Nc1ccccc1Oc1ccc(C(=O)O)c(C(=O)O)c1)c1cccc([N+](=O)[O-])c1`, 184 to 190 °C.
For the compound `CNC(N)=Nc1nc(-c2cccc(CNC(C)=O)n2)cs1`, the melting point amounted to 181 °C.
In turn, `CN1CC(CNN)CC2c3cccc4[nH]cc(c34)CC21` (centres undefined) returned a melting point of 171 to 172 °C.
As to `COc1ccc(C(=O)Nc2cccc3[nH]ccc23)c(O)c1`, the melting point stood at 190 °C.
Under `CN(C)C(=O)c1cccnc1S` stands 200 to 208 °C; under `COCCOc1c2ccccc2c(C=O)c2ccccc12`, 87 to 88 °C; under `NC(=O)Cc1c(CCN(Cc2ccccc2)Cc2ccccc2)[nH]c2ccccc12`, 135 to 136 °C.
Regarding `COc1ccc(C2=NN(Cc3ccccn3)C(=O)[C@H]3CC=CC[C@@H]23)cc1OC` (relative stereo), the melting point fell in the range of 146 to 147 °C.
Consider `COc1cc(OC(C)C)cc2oc(Sc3ccc(O)cc3)cc(=O)c12`, for which the melting point fell in the range of 263 to 265 °C.
Under `Clc1ccccc1C=C(Cn1cncn1)C1(Cl)CC1` stands 82 to 85 °C; under `COc1cccc(C2(CNC(=O)Nc3c(C(C)C)cc(N)cc3C(C)C)CCN(c3ccccc3O)CC2)c1`, 207 to 208 °C.
`O=C(O)CCc1oc(-n2ccnc2CO)nc1-c1ccc(Cl)cc1` displayed a melting point of 171 to 173 °C.
Under `C=CCn1c(=O)n(CCCCO)c2nc(N)nc(Cl)c21` stands 132 to 133 °C; under `O=C1CCCC(=O)C1Cc1ccccc1CCCCl`, 143 to 145 °C.
Under `CN(C)c1nc2sc3c(NCCc4c[nH]cn4)ncnc3c2c2c1CCC2(C)C` stands 261 to 262 °C.
For the compound `Cc1ccc2c(c1)-n1cc(C(=O)O)nc1CO2`, the melting point fell in the range of 281 to 285 °C.
Under `CCn1c(Oc2cccc(N3CCNCC3)c2)nnc1[C@@H](C)NS(=O)(=O)c1ccc(Cl)c(Cl)c1` stands 175 to 178 °C; under `Cn1c(COc2ccc(CC3SC(=O)NC3=O)cc2)nc2ccc(Oc3ccc(NC(=O)Nc4ccccc4)cc3)cc21` (centres undefined), 164 to 168 °C.
Under `CCO[PH](=O)C#Cc1c(C(C)C)c2ccccc2n1-c1ccc(F)cc1` (centres undefined) stands 80 to 82.5 °C.
Under `CCCOc1nc(-c2ccco2)c2ncn(Cc3ccc(OC)cc3)c2n1` stands 119 °C.
In turn, `COc1ccc(C2CCN(C(=O)C(N)=O)CC2)cc1C=C1CCCC1` displayed a melting point of 116 to 117 °C.
Consider `COc1c(C)c2c(c(OS(=O)(=O)c3ccc(C)cc3)c1CC=C(C)C=O)C(=O)OC2`, for which the melting point lay within 168 to 173 °C.
`CC(C)(C)n1c(=O)c2c(-c3nc(C4CC4)no3)ncn2c2ccccc21` showed a melting point of 182 to 184 °C.
`Cn1c(C2CC2)nc2c(O[C@@H]3c4ccccc4C[C@H]3O)cc(C(=O)O)cc21` (relative stereo): the melting point lay within 132 to 134 °C.
Under `Fc1ccc2nc(-c3ccccc3)cc(Cl)c2c1` stands 96 to 99 °C; under `Cc1cc2ccccc2c(Cl)c1C`, 55 °C.
Under `O=C1CC(Cc2ccc(Cl)cc2)CN1` (centres undefined) stands 95 to 98 °C; under `C(=CCN(c1ccccc1)c1ccccc1)CN(c1ccccc1)c1ccccc1`, 105 to 107 °C; under `C=Cc1ncn2c1[C@@H]1CCCN1C(=O)c1c(Cl)cccc1-2`, 213 to 215 °C.
Under `CC(C)c1ccc(NC(=O)N2CCc3cc(S(=O)(=O)N4CCN(c5cccc(Cl)c5)CC4)ccc32)cc1` stands 182 °C; under `O=C(NCCO)NC1CCCc2ccccc21` (centres undefined), 146 to 149 °C.
In turn, `CCOc1ccc(-c2ccc(C#CC3(O)CN4CCC3CC4)cc2)cc1` (centres undefined) displayed a melting point of 255 to 256 °C.
Under `CN(C)Cc1cc(CSCCNc2ncc([N+](=O)[O-])c(=O)[nH]2)cs1` stands 150 to 153 °C.
Under `O=C(N[C@H](Cc1ccc(C(F)(F)F)cc1)[C@@H](O)c1ccc(F)cc1)c1cc(C(F)(F)F)cc(C(F)(F)F)c1` (racemic) stands 150 to 151 °C; under `COc1ccc(C(=CC(=O)N2CCOCC2)c2ccc(Cl)nc2)cc1OC`, 154 to 160 °C.
Under `Cc1ccc(C(=O)Nc2ccc(-c3ccccc3)c(C(F)(F)F)c2)cc1Nc1nccc(-c2cccnc2)n1` stands 172 to 174 °C; under `Cc1cc(C)nc(NCCN(C(C)C)C(C)C)n1`, 79.5 to 82 °C.
Take `Cc1ccc(C(=O)Nc2ccccc2C#N)c([N+](=O)[O-])c1`: the melting point is 230 to 232 °C.
Under `CN(C)c1ccc(NC(=O)c2cc3cc([Si](C)(C)C)ccc3n2Cc2cccc(F)c2)cn1` stands 204 to 205 °C; under `N#Cc1c(N2CCCC2)cc(-c2ccc(Cl)cc2)c2c1Cc1ccccc1-2`, 197 to 199 °C; under `Cn1ncc(C(=O)C2CC2)c1S(N)(=O)=O`, 125 to 127 °C.
Under `CS(=O)(=O)c1ccc(C(CC2CCCC2)c2nc(F)c(C(=O)C3CC3)[nH]2)cc1` (centres undefined) stands 160 to 162 °C; under `c1cnc(-c2cc(C3CC3)on2)cn1`, 86 to 91 °C.
Under `CCCc1cc(=O)[nH]c(NC(=N)Nc2ccccc2)n1` stands 196 °C; under `CN(C)Cc1nc(C=O)nn1-c1ccc(Cl)cc1C(=O)c1ccccc1`, 178 to 181 °C; under `CCN1C(=O)C(C(=O)Nc2cccc(C(=O)Nc3ccc(I)cc3)c2)c2cc(C(C)=O)ccc21` (centres undefined), 205 to 210 °C.
`O=C(N[C@H](Cc1ccc(C(F)(F)F)cc1)[C@@H](O)c1ccc(F)c(F)c1)c1ccc(F)c2ccccc12` (racemic) showed a melting point of 197 to 198 °C.
In turn, `CC1CC(c2cc3c(C(F)(F)F)cccc3s2)CCN1` (centres undefined) returned a melting point of 106 to 108 °C.
With `CC(=O)Nc1ccc(S(=O)(=O)Nc2cccc(N(C)C(C)=O)c2)cc1`, the melting point lay in the range of 258 to 260 °C.
Under `CCCCCCCCCCCCCCCC(=O)SC1CCN(C(C(=O)OC)c2ccccc2F)CC1` (centres undefined) stands 44 to 47 °C; under `COc1ccc(Cl)cc1C(=O)NCCc1ccc(C(C)CC(=O)O)cc1` (centres undefined), 125 to 127 °C; under `Cn1nc(-c2ccc(F)cc2)c(-c2ccncc2)c1C=CCc1ccccc1`, 136 to 137 °C.
The compound `O=S1c2ccccc2C(CCCl)(CCCl)c2ccccc21` registered a melting point of 126 to 127 °C.
On to `CC1=C(c2ccc(C(=O)N3Cc4cccn4Cc4ccccc43)cc2C)C(C)CCC1` (centres undefined), for which the melting point is 133 to 135 °C.
Compound `CC(C)COc1ccc(F)cc1OCCOS(C)(=O)=O` had a melting point of 53 to 55 °C.
Consider `O=C(O)c1ccc2nc(/C=C/c3ccccc3)cc(=O)n2c1`, for which the melting point was 293 to 295 °C.
Under `CCn1ncc2c1ncc1c(=O)n3nccc3n(CCC(C)C)c12` stands 167 to 168 °C.
